# Measurements from patent US9828644B2, “BACH2 repression in cells” (UNIVERSITE LIBRE DE BRUXELLES, priority 2010, dated 2017).
# B1: Fas-L: FAS ligand (FASLG/TNFSF6) added to Jurkat clones to trigger apoptosis (protein, UniProt P48023 130-281, looked up)
# Tumor necrosis factor ligand …: QIGHPSPPPEKKELRKVAHLTGKSNSRSMPLEWEDTYGIVLLSGVKYKKGGLVINETGLYFVYSKVYFRGQSCNNLPLSHKVYMRNSKYPQDLVMMEGKMMSYCTTGQMWARSSYLGAVFNLTSADHLYVNVSELSLVNFEESQTFFGLYKL
# Columns and labels:
# [1] = system: shRNA BACH2 Jurkat clones (E6.1 Jurkat T cell line); test: Apoptosis assay (annexin V-FITC and PI staining, flow cytometry) in shRNA BACH2 Jurkat clones; assay type: cell-based; details: for Apoptosis response % shRNABACH2: shRNA BACH2 Jurkat clones; for Apoptosis response Difference %: shRNACTRL minus shRNABACH2 Jurkat clones
# Description: (§1) The apoptosis was assessed by flow cytometry. Columns with standard deviation represent the mean percentage of 3 experiments.
# (§2) Histograms of gated cells represent early and late apoptotic populations. As shown in the left panel, 42% of treated shRNA CTRL cells are in apoptosis whereas 18% of apoptotic shRNA BACH2 cells are observed after BACH2 repression
# (§3) The inventors firstly added FAS ligand (FASLG/TNFSF6) or PMA (phorbol myristic acetate) (see Table 2) to control or to cells transfected with BACH2 sh RNA. They further treated control and transfected cells (with BACH2 sh RNA) by a 18-hours stimulation with anti-CD2, anti-CD28 or anti-CD3 antibodies.
# [2] = system: shRNA CTRL Jurkat clones (E6.1 Jurkat T cell line); test: Apoptosis assay (annexin V-FITC and PI staining, flow cytometry) in shRNA CTRL Jurkat clones; assay type: cell-based; details: for Apoptosis response % shRNACTRL: shRNA CTRL Jurkat clones
# Description: as §1, §2, §3
# [3] = system: Fas L mRNA in CD4+ cells from a patient having a hemizigous deletion of BACH2 gene; test: Fas L mRNA abundance in CD4+ cells ex vivo in function of etoposide treatment; assay type: cell-based, human; details: CD4+ cells having lost one copy of BACH2, compared with control CD4+ cells from a healthy donor
# Excerpt: This observation is further confirmed by the ex-vivo analysis shown at FIG. 8, wherein, clearly, CD4+ T cells having hemizigous BACH2 fail to express FasL mRNA.
Molecule,"reduction in the number of apoptotic cells (AnnexinV+) in the BACH2-repressed clone ([1]; clone shRNA BACH2-C versus shRNA control-A, 1 μg/ml of etoposide)","apoptotic cells (early and late apoptotic populations) ([1]; clone shRNA BACH2-C, 1 μg/ml etoposide, 18 hrs) [%]",Apoptosis response % shRNABACH2 [1],Apoptosis response Difference % [1] [%],"cells in apoptosis (early and late apoptotic populations) ([2]; clone shRNA CTRL-A, 1 μg/ml etoposide, 18 hrs) [%]",Apoptosis response % shRNACTRL [2],FasL mRNA production upon etoposide exposure [3]
COc1cc([C@@H]2c3cc4c(cc3[C@@H](O[C@@H]3O[C@@H]5CO[C@@H](C)O[C@H]5[C@H](O)[C@H]3O)[C@H]3COC(=O)[C@H]23)OCO4)cc(OC)c1O [Etoposide],two-fold reduction,18,18.27 (+/−2.71) %,23,42,41.2 (+/−4.94) %,fails to produce FasL
"CCCCCCCCCCCCCC(=O)O[C@@H]1[C@@H](C)[C@@]2(O)[C@@H](C=C(CO)C[C@]3(O)C(=O)C(C)=C[C@@H]23)[C@@H]2C(C)(C)[C@]12OC(C)=O [PMA, phorbol myristic acetate]",–,–,16.7 (+/−6.12) %,−0.5,–,16.17 (+/−2.26) %,–
B1,–,–,34.51 (+/−3.75) %,−1.3,–,33.18 (+/−2.32) %,–
